Reference: patent US5763413A, “Lewis-associated compound, process for producing the same, and anti-inflammatory” (MECT Corporation, priority 1993, dated 1998)

Key:
passive Arthus reaction [1] = assay: Anti-inflammatory activity test: passive Arthus reaction (Example of Test 2); type: in vivo, male guinea pigs of the Hartley strain; settings: Table 21, 30 min before antigen
Protocol: Example of Test 2 (Anti-inflammatory Activity Test)
(§1) Male guinea pigs of the Hartley strain weighing 200~250 g were used.
(2) Experimental Materials
(§2) The anti-ovalbumin rabbit serum (PCA titer=1/80,000) and ovalbumin were used as the antiserum and antigen, respectively.
(§3) The passive Arthus reaction was performed according to the method of Katayama et al. [Katayama, S. et al., Arzeim-Forsch., 31, 1196 (1981)]. That is, guinea pigs were sensitized by an intravenous injection of said anti-ovalbumin rabbit serum (2.5 ml/kg). Thirty minutes after the injection, the Arthus reaction was induced by the intradermal injection of an antigen solution (0.05 ml) containing 0.10 mg of ovalbumin to the abdomen shaved the day before. Two hours after the antigen challenge, the area of intradermal bleeding was measured and used as the index representing the grade of inflammatory reaction. Test compounds were intravenously injected 30 min before the antigen injection. Four guinea pigs per each group were used.
(§4) The percent inhibi- is expressed as the bleeding area of the challenged site (%) of the animal group injected with each compound relative to that (100%) of the group administered with the physiological saline.

[2] = Simple acute toxicity test (intravenous injection); type: in vivo, male mice of ddY strain; settings: i.v. (tail vein), ddY mice
Protocol: Example of Test 1 (Simple Acute Toxicity Test)
The simple acute toxicity test was carried out by an intravenous injection of compounds of the present invention.
Into the tail vein of male mice of ddY strain weighing 18~20 g which have been kept under the conditions at the temperature of 23°±1° C. and in the humidity of 55 ±7% were injected a solution of the compound of the present invention dissolved in the physiological saline containing the desired dose per 20 g body weighing 0.2 ml. Two dosages of which were 50 mg/kg and 500 mg/kg body weight were used.

passive Arthus reaction [3] = assay: Anti-inflammatory activity test, carried out as Example of Test 2 (Example of Test 3); type: in vivo, male guinea pigs of the Hartley strain; settings: Table 22, i.v.
Protocol: as §1, §2, §3, §4
The anti-inflammatory activity test of compounds of the present invention was similarly carried out as in the case of Example of Test 2.

Compound | Percent inhibition (passive Arthus reaction) (passive Arthus reaction [1]; 1 mg/kg i.v.) [%] | Percent inhibition (passive Arthus reaction) (passive Arthus reaction [1]; 3 mg/kg i.v.) [%] | Mortality ([2]; 50 mg/kg) | Mortality ([2]; 500 mg/kg) | Percent inhibition (passive Arthus reaction) (passive Arthus reaction [1]; 1 mg/kg i.v., 1 mg/kg) [%] | Percent inhibition (passive Arthus reaction) (passive Arthus reaction [1]; 3 mg/kg i.v., 3 mg/kg) [%] | Percent inhibition (passive Arthus reaction) (passive Arthus reaction [3]; 0.01 mg/kg) [%] | Percent inhibition (passive Arthus reaction) (passive Arthus reaction [3]; 0.1 mg/kg) [%] | Percent inhibition (passive Arthus reaction) (passive Arthus reaction [3]; 1 mg/kg) [%] | Percent inhibition (passive Arthus reaction) (passive Arthus reaction [3]; 0.001 (unit of dose not given)) [%]
CCCOC1OC(CO)C(OC2OC(CO)C(O)C(OS(=O)(=O)[O-])C2O)C(OC2OC(C)C(O)C(O)C2O)C1NC(C)=O.[Na+] (stereo not drawn) [Compound 10] | 25.5 ± 17.4 | 64.8 ± 3.4 | 0/3 | 0/3 |  |  |  |  |  | 
CCCOC1OC(CO)C(OC2OC(CO)C(OS(=O)(=O)[O-])C(OS(=O)(=O)[O-])C2OS(=O)(=O)[O-])C(OC2OC(C)C(O)C(O)C2O)C1NC(C)=O.[Na+].[Na+].[Na+] (stereo not drawn) [Compound 12] | 45.3 ± 6.7 | 67.8 ± 5.2 | 0/3 | 0/3 |  |  |  |  |  | 
CCCOC1OC(CO)C(OC2OC(CO)C(O)C(OCC(=O)[O-])C2O)C(OC2OC(C)C(O)C(O)C2O)C1NC(C)=O.[Na+] (stereo not drawn) [Compound 17] | 45.5 ± 3.5 | 14.9 ± 14.5 | 0/3 | 0/3 |  |  |  |  |  | 
CCCOC1OC(CO)C(OC2OC(CO)C(O)C(OCC(=O)[O-])C2OCC(=O)[O-])C(OC2OC(C)C(O)C(O)C2O)C1NC(C)=O.[Na+].[Na+] (stereo not drawn) [Compound 18] | 75.7 ± 3.9 | 60.8 ± 9.8 | 0/3 | 0/3 |  |  |  |  |  | 
CCCOC1OC(CO)C(OC2OC(C)C(O)C(O)C2O)C(OC2OC(CO)C(O)C(OS(=O)(=O)[O-])C2O)C1NC(C)=O.[Na+] (stereo not drawn) [Compound 26] | 75.5 ± 1.6 | 77.3 ± 8.0 | 0/3 | 0/3 |  |  |  |  |  | 
CCCOC1OC(CO)C(OC2OC(C)C(O)C(O)C2O)C(OC2OC(CO)C(O)C(OCC(=O)[O-])C2O)C1NC(C)=O.[Na+] (stereo not drawn) [Compound 30] | 21.0 ± 5.9 | 15.4 ± 5.3 | 0/3 | 0/3 |  |  |  |  |  | 
CCCOC1OC(CO)C(OC2OC(C)C(O)C(O)C2O)C(OC2OC(CO)C(O)C(OCC(=O)[O-])C2OCC(=O)[O-])C1NC(C)=O.[Na+].[Na+] (stereo not drawn) [Compound 31] | 74.5 ± 6.7 | 15.9 ± 6.4 | 0/3 | 0/3 |  |  |  |  |  | 
CCCOC1OC(CO)C(OC2OC(C)C(O)C(O)C2O)C(OC2OC(CO)C(O)C(O)C2OCC(=O)[O-])C1NC(C)=O.[Na+] (stereo not drawn) [Compound 32] | 61.0 ± 4.2 | 57.4 ± 8.7 | 0/3 | 0/3 |  |  |  |  |  | 
CCCOC1OC(CO)C(OC2OC(CO)C(O)C(OC3(C(=O)[O-])CC(O)C(NC(C)=O)C(C(O)C(O)CO)O3)C2O)C(OC2OC(C)C(O)C(O)C2O)C1NC(C)=O.[Na+] (stereo not drawn) [Compound 40] |  |  | 0/3 | 0/3 | 47.3 ± 7.4 | 63.5 ± 8.3 |  |  |  | 
CCCCCCCCCCCCCCCCCCCCCCCC(=O)NC(COC1OC(CO)C(OC2OC(CO)C(O)C(OC3(C(=O)[O-])CC(O)C(NC(C)=O)C(C(O)C(O)CO)O3)C2O)C(OC2OC(C)C(O)C(O)C2O)C1NC(C)=O)C(O)CCCCCCCCCCCCCCC.[Na+] (stereo not drawn) [Compound 46] | 25.6 ± 11.3 | 74.4 ± 16.3 | 0/3 | 0/3 |  |  |  |  |  | 
CC(=O)NC1C(O)CC(OC2C(O)C(CO)OC(OC3C(CO)OC(OCC4OC(O)C(O)C(O)C4O)C(NC(C)=O)C3OC3OC(C)C(O)C(O)C3O)C2O)(C(=O)[O-])OC1C(O)C(O)CO.[Na+] (stereo not drawn) [Compound 53] | 44.8 ± 15.0 | 58.7 ± 9.5 | 0/3 | 0/3 |  |  |  |  |  | 
CC(=O)NC1C(O)CC(OC2C(O)C(CO)OC(OC3C(CO)OC(OC4C(O)C(O)OC(CO)C4O)C(NC(C)=O)C3OC3OC(C)C(O)C(O)C3O)C2O)(C(=O)[O-])OC1C(O)C(O)CO.[Na+] (stereo not drawn) [Compound 62] | 41.9 ± 8.9 | 57.4 ± 7.3 | 0/3 | 0/3 |  |  |  |  |  | 
CCCOC1OC(CO)C(OC2OC(C)C(O)C(O)C2O)C(OC2OC(CO)C(O)C(OC3(C(=O)[O-])CC(O)C(NC(C)=O)C(C(O)C(O)CO)O3)C2O)C1NC(C)=O.[Na+] (stereo not drawn) [Compound 90] |  |  | 0/3 | 0/3 | 65.4 ± 8.5 | 69.6 ± 6.3 |  |  |  | 
CCCOC1OC(CO)C(OC2OC(CO)C(O)C(OC3(C(=O)[O-])CC(O)C(NC(C)=O)C(C(O)C(O)CO)O3)C2O)C(OC2OC(C)C(O)C(O)C2O)C1NC(C)=O.[Na+] (stereo not drawn) [Compound 121] |  |  | 0/3 | 0/3 | 42.1 ± 8.3 | 59.8 ± 5.3 |  |  |  | 
CCCOC1OC(CO)C(OC2OC(C)C(O)C(O)C2O)C(OC2OC(CO)C(O)C(OC3(C(=O)[O-])CC(O)C(NC(C)=O)C(C(O)C(O)CO)O3)C2O)C1NC(C)=O.[Na+] (stereo not drawn) [Compound 123] |  |  | 0/3 | 0/3 | 76.8 ± 12.0 | 84.5 ± 5.1 |  |  |  | 
COc1ccc(OC2OC(CO)C(OC3OC(CO)C(O)C(OS(=O)(=O)[O-])C3OC(=O)C(C)(C)C)C(OC3OC(C)C(O)C(O)C3O)C2OC(=O)C(C)(C)C)cc1.[Na+] (stereo not drawn) [Compound 142] |  |  |  |  |  |  | -3.3 ± 2.7 | 57.6 ± 12.6 | 84.8 ± 4.6 | 
COc1ccc(OC2OC(CO)C(OC3OC(CO)C(O)C(OS(=O)(=O)[O-])C3O)C(OC3OC(C)C(O)C(O)C3O)C2O)cc1.[Na+] (stereo not drawn) [Compound 143] |  |  |  |  |  |  | 84.1 ± 5.2 | 52.5 ± 12.2 | 70.1 ± 1.8 | 
COc1ccc(OC2OC(CO)C(OC3OC(CO)C(OS(=O)(=O)[O-])C(O)C3O)C(OC3OC(C)C(O)C(O)C3O)C2O)cc1.[Na+] (stereo not drawn) [Compound 144] |  |  |  |  |  |  | -15.2 ± 6.7 | 22.0 ± 30.1 | 23.9 ± 14.7 | 
CCCOC1OC(CO)C(OC2OC(C)C(O)C(O)C2O)C(OC2OC(CO)C(O)C(O)C2OS(=O)(=O)[O-])C1NC(C)=O.[Na+] (stereo not drawn) [Compound 175] |  |  |  |  |  |  | 44.6 ± 20.1 | 62.5 ± 16.1 | 67.1 ± 4.4 | 
CCCOC1OC(CO)C(OC2OC(C)C(O)C(O)C2O)C(OC2OC(CO)C(OS(=O)(=O)[O-])C(OS(=O)(=O)[O-])C2OS(=O)(=O)[O-])C1NC(C)=O.[Na+].[Na+].[Na+] (stereo not drawn) [Compound 176] |  |  |  |  |  |  | 57.5 ± 14.7 | 83.9 ± 10.1 | 92.4 ± 3.8 | 
CCCOC1OC(CO)C(OC2OC(C)C(O)C(O)C2O)C(OC2OC(CO)C(O)C(O)C2OS(=O)(=O)[O-])C1NC(C)=O.[Na+] (stereo not drawn) [Compound 188] |  |  |  |  |  |  | 57.2 ± 14.5 | 86.2 ± 1.7 |  | 84.2 ± 5.4
CCCOC1OC(CO)C(OC2OC(C)C(O)C(O)C2O)C(OC2OC(CO)C(O)C(OS(=O)(=O)[O-])C2O)C1NC(C)=O.[Na+] (stereo not drawn) [Compound 189] |  |  |  |  |  |  | 73.6 ± 8.9 | 59.8 ± 9.7 |  | 90.9 ± 4.0
CCCOC1OC(CO)C(OC2OC(C)C(O)C(O)C2O)C(OC2OC(CO)C(OS(=O)(=O)[O-])C(O)C2O)C1NC(C)=O.[Na+] (stereo not drawn) [Compound 190] |  |  |  |  |  |  | 79.3 ± 4.7 | 76.9 ± 4.1 |  | 12.7 ± 6.3
